Measured values as given in ChEMBL document CHEMBL1141891, “Crystallographic determination of stereochemistry of biologically active 2'',3''-dibromo-7-epi-10-deacetylcephalomannine” (Bioorg Med Chem Lett, 2005).
Converted amounts (≈) assume the structure as drawn.

Tests used:
Type in all cases: functional, cell-based
[1] = test system: A2780; assay: Inhibitory concentration against A2780 proliferation after 72 hr; details: Homo sapiens, A2780, 72 h
[2] = test system: MCF7; assay: Inhibitory concentration required to inhibit MCF-7 Cell line growth on continuous exposure time of 72 h; details: Homo sapiens, MCF7, 72 h
[3] = test system: A549; assay: Inhibitory concentration required to inhibit A549 Cell line growth on continuous exposure time of 72 h; details: Homo sapiens, A549, 72 h

| IC50 [1] [ng/mL] | IC50 [2] [ng/mL] | IC50 [3] [ng/mL] | Compound |
| --- | --- | --- | --- |
| 4.84 (≈ 5.1 nM) | 7.1 (≈ 7.48 nM) | 26.9 (≈ 28.3 nM) | CC(=O)O[C@@]12CO[C@@H]1C[C@@H](O)[C@@]1(C)C(=O)[C@H](O)C3=C(C)[C@@H](OC(=O)[C@H](O)[C@@H](NC(=O)[C@](C)(Br)[C@@H](C)Br)c4ccccc4)C[C@@](O)([C@@H](OC(=O)c4ccccc4)C12)C3(C)C (some centres not stated) |
| 6.76 (≈ 7.92 nM) |  |  | CC(=O)O[C@H]1C(=O)[C@@]2(C)[C@H]([C@H](OC(=O)c3ccccc3)[C@]3(O)C[C@H](OC(=O)[C@H](O)[C@@H](NC(=O)c4ccccc4)c4ccccc4)C(C)=C1C3(C)C)[C@]1(OC(C)=O)CO[C@@H]1C[C@@H]2O [PACLITAXEL] |
| 2.13 (≈ 2.24 nM) | 4.75 (≈ 5 nM) | 13 (≈ 13.7 nM) | CC(=O)O[C@@]12CO[C@@H]1C[C@@H](O)[C@@]1(C)C(=O)[C@H](O)C3=C(C)[C@@H](OC(=O)[C@H](O)[C@@H](NC(=O)[C@@](C)(Br)[C@H](C)Br)c4ccccc4)C[C@@](O)([C@@H](OC(=O)c4ccccc4)C12)C3(C)C (some centres not stated) |
